Experimental data taken from patent publication US20240166649A1, “DIHYDROPYRIMIDINE COMPOUND, PREPARATION METHOD THEREFOR AND APPLICATION THEREOF” (Shanghai Visonpharma Co., Ltd., priority 2021, published 2024).

Key:
[1] = test system: HBV (hepatitis B virus) in HepG2.2.15 cells; assay: Cell-based anti-viral activity assay (HBV DNA in supernatant by quantitative PCR); conditions: 120 h, anti-HBV activity, HepG2.2.15 cells, 5 days, read-out: EC50 (HepG2.2.15)
Experimental: Cell-Based Anti-Viral Activity Assay
The Invention determined the anti-HBV (hepatitis B virus) activity of compounds in HepG2.2.15 cells (Table 1).
HepG2.2.15 is a cell line stably transfected with the HBV genome. HepG2.2.15 cells were cultured in DMEM (1X) with 10% fetal bovine serum (Corning), 100 U penicillin (Gibico), 100 μg/mL streptomycin (Gibico), 250 μg/mL geneticin (Gibco) and GlutaMAXTM-I medium (Invitrogen).
HepG2.2.15 cells were seeded into 96-well plates (4×10^4 cells in 100 μL of medium per well) and incubated overnight at 37° C. The test compounds were weighed and prepared as 10 mM stock solution with DMSO. The stock solutions of the compounds were diluted by a gradient of 3.16 times with DMSO, and then diluted by a gradient of 3.16 times with medium for 50 times. Finally, the diluted compound solutions were added to the cell plate with a total volume of 200 μL and the final DMSO concentration was 1%. The 96-well culture plates loaded with drugs were transferred to an incubator at 37° C. for 5 days. […] nucleic acid releasing agent was added to 96-well PCR reaction plate, and 2 μL of cell supernatant or HBV quantitative standards were added to the corresponding Wells. Centrifuged the plates to fully mix, and incubated at room temperature for 10 min to fully release nucleic acid. Quantified HBV DNA content by fluorescent quantitative PCR (CFX Connect Real-Time System) using Sanxiang Bio hepatitis B virus fluorescent quantitative diagnostic kit.
The standard curve was established by taking the logarithm of the copy number (IU/ml) of the HBV standard sample (log 10) as the abscordinate and the corresponding CT value as the ordinate. The copy number of the sample was calculated according to the corresponding CT of the positive sample and the standard curve, and the percentage of inhibition rate was calculated as follows: • % Inhibition=100-100*(sample HBV copy number−high concentration reference compound column HBV copy number)/DMSO column HBV copy number−high concentration reference compound column HBV copy number).

[2] = Cytotoxicity assay (CellTiter Glo); format: cell-based; conditions: human; HepG2.2.15 cells, five days post treatment
Experimental: The Invention Determined Cytotoxicity of the Compounds Against HepG2.2.15 Cells (Table 2)
HepG2.2.15 cells were seeded into 96-well plates (8000 cells per well) and cell viability was measured by the addition of 60 μL of CellTiter Glo reagent (Promega) five days post treatment with the compounds. Cell plates with CellTiter Glo added were shaken on a plate shaker for 20 min and then the chemiluminescence signal was stabilized at room temperature for 10 min. Chemiluminescence values were read using a microplate reader (Bio-TeK SYNERGY NEO2).
The concentration corresponding to 50% cytotoxicity (CC50) was fitted by graphpad prism software. The cytotoxicity was calculated by the formula: % Cytotoxicity=100−(chemiluminescence value of sample Well −average chemiluminescence value of blank medium column)/(average chemiluminescence value of DMSO column −average chemiluminescence value of blank medium column)*100

CCOC(=O)C1=C(CN2CCN3C(=O)N(C45CC(C(=O)O)(C4)C5)C[C@@H]3C2)NC(c2nccs2)=N[C@H]1c1cccc(F)c1C [Compound 1, 3-((S)-7-(((S)-5-(Ethoxycarbonyl)-6-(3-Fluoro-2-Methylphenyl)-2-(Thiazol-2-Yl)-3,6-Dihydropyrimidin-4-Yl)Methyl)-3-Oxohexahydroimidazo[1,5-a]Pyrazin-2(3H)-Yl)Bicyclo[1.1.1]Pentane-1-Carboxylic Acid]
EC50 [1]: 0.033 µM | CC50 at 5 days [2]: > 50 µM

CCOC(=O)C1=C(CN2CCN3C(=O)N(C45CC(CO)(C4)C5)C[C@@H]3C2)NC(c2nccs2)=N[C@H]1c1cccc(F)c1C [Compound 2, Ethyl (S)-4-(3-Fluoro-2-Methylphenyl)-6-(((S)-2-(3-(Hydroxymethyl)Bicyclo[1.1.1]Pentan-1-Yl)-3-Oxohexahydroimidazo[1,5-a]Pyrazin-7(1H)-Yl)Methyl)-2-(Thiazol-2-Yl)-1,4-Dihydropyrimidine-5-Carboxylate]
EC50 [1]: 0.003 µM | CC50 at 5 days [2]: > 50 µM

CCOC(=O)C1=C(CN2CCN3C(=O)N(CC45CC(C(=O)O)(C4)C5)C[C@@H]3C2)NC(c2nccs2)=N[C@H]1c1cccc(F)c1C [Compound 5, 3-(((S)-7-(((S)-5-(Ethoxycarbonyl)-6-(3-Fluoro-2-Methylphenyl)-2-(Thiazol-2-Yl)-3,6-Dihydropyrimidin-4-Yl)Methyl)-3-Oxohexahydroimidazo[1,5-a]Pyrazin-2(3H)-Yl)Methyl)Bicyclo[1.1.1]Pentane-1-Carboxylic Acid]
EC50 [1]: 0.073 µM | CC50 at 5 days [2]: > 50 µM

CCOC(=O)C1=C(CN2CCN3C(=O)N(C45CC(C#N)(C4)C5)C[C@@H]3C2)NC(c2nccs2)=N[C@H]1c1cccc(F)c1C [Compound 17, Ethyl (S)-6-(((S)-2-(3-Cyanobicyclo[1.1.1]Pentan-1-Yl)-3-Oxohexahydroimidazo[1,5-a]Pyrazin-7(1H)-Yl) Methyl)-4-(3-Fluoro-2-Methylphenyl)-2-(Thiazol-2-Yl)-1,4-Dihydropyrimidine-5-Carboxylate]
EC50 [1]: 0.005 µM | CC50 at 5 days [2]: > 50 µM

CCOC(=O)C1=C(CN2CCN3C(=O)N(C45CC(CF)(C4)C5)C[C@@H]3C2)NC(c2nccs2)=N[C@H]1c1cccc(F)c1C [Compound 18, Ethyl (S)-4-(3-Fluoro-2-Methylphenyl)-6-(((S)-2-(3-(Fluoromethyl)Bicyclo[1.1.1]Pentan-1-Yl)-3-Oxohexahydroimidazo[1,5-a]Pyrazin-7(1H)-Yl)Methyl)-2-(Thiazol-2-Yl)-1,4-Dihydropyrimidine-5-Carboxylate]
EC50 [1]: 0.003 µM | CC50 at 5 days [2]: > 50 µM

CCOC(=O)C1=C(CN2CCN3C(=O)N(C45CC(C(=O)NS(C)(=O)=O)(C4)C5)C[C@@H]3C2)NC(c2nccs2)=N[C@H]1c1cccc(F)c1C [Compound 28, Ethyl (S)-4-(3-Fluoro-2-Methylphenyl)-6-(((S)-2-(3-((Methylsulfonyl)Carbamoyl)Bicyclo[1.1.1]Pentan-1-Yl)-3-Oxohexahydroimidazo[1,5-a]Pyrazin-7(1H)-Yl)Methyl)-2-(Thiazol-2-Yl)-1,4-Dihydropyrimidine-5-Carboxylate]
EC50 [1]: 0.021 µM | CC50 at 5 days [2]: > 50 µM

CCOC(=O)C1=C(CN2CCN3C(=O)N(C45CC(NS(=O)(=O)C6CC6)(C4)C5)C[C@@H]3C2)NC(c2nccs2)=N[C@H]1c1cccc(F)c1C [Compound 29, Ethyl (S)-6-(((S)-2-(3-(Cyclopropanesulfonamido)Bicyclo[1.1.1]Pentan-1-Yl)-3-Oxohexahydroimidazo[1,5-a]Pyrazin-7(1H)-Yl)Methyl)-4-(3-Fluoro-2-Methylphenyl)-2-(Thiazol-2-Yl)-1,4-Dihydropyrimidine-5-Carboxylate]
EC50 [1]: 0.006 µM | CC50 at 5 days [2]: > 50 µM

CCOC(=O)C1=C(CN2CCN3C(=O)N(C45CC(CO)(C4)C5)C[C@@H]3[C@H]2C(=O)O)NC(c2nccs2)=N[C@H]1c1cccc(F)c1C [Compound 33, (8S,8aR)-7-(((S)-5-(Ethoxycarbonyl)-6-(3-Fluoro-2-Methylphenyl)-2-(Thiazol-2-Yl)-3,6-Dihydropyrimidin-4-Yl)Methyl)-2-(3-(Hydroxymethyl)Bicyclo[1.1.1]Pentan-1-Yl)-3-Oxooctahydroimidazo[1,5-a]Pyrazine-8-Carboxylic Acid]
EC50 [1]: 0.202 µM | CC50 at 5 days [2]: > 50 µM

CCOC(=O)C1=C(CN2CCN3C(=O)N(C45CC(CC(=O)O)(C4)C5)C[C@@H]3C2)NC(c2nccs2)=N[C@H]1c1ccc(F)cc1Cl [Compound 35]
EC50 [1]: 0.028 µM | CC50 at 5 days [2]: > 50 µM

CCOC(=O)C1=C(CN2CCN3C(=O)N(C45CC(CC(=O)O)(C4)C5)C[C@@H]3C2)NC(c2nccs2)=N[C@H]1c1ccc(F)cc1C [Compound 37]
EC50 [1]: 0.018 µM | CC50 at 5 days [2]: > 50 µM

COC(=O)C1=C(CN2CCN3C(=O)N(C45CC(CC(=O)O)(C4)C5)C[C@@H]3C2)NC(c2nccs2)=N[C@H]1c1ccc(F)cc1Cl [Compound 38, 2-(3-((S)-7-(((R)-6-(2-Chloro-4-Fluorophenyl)-5-(Methoxycarbonyl)-2-(Thiazol-2-Yl)-3,6-Dihydropyrimidin-4-Yl)Methyl)-3-Oxohexahydroimidazo[1,5-a]Pyrazin-2 (3H)-Yl)Bicyclo[1.1.1]Pentane-1-Yl)Acetic Acid]
EC50 [1]: 0.043 µM | CC50 at 5 days [2]: > 50 µM

CCOC(=O)CC12CC(N3C[C@@H]4[C@@H](COC)N(CC5=C(C(=O)OCC)[C@H](c6cccc(F)c6C)N=C(c6nccs6)N5)CCN4C3=O)(C1)C2 [Compound 44, Ethyl (S)-6-(((8S,8aR)-2-(3-(2-Ethoxy-2-Oxoethyl)Bicyclo[1.1.1]Pentan-1-Yl)-8-(Methoxymethyl)-3-Oxohexahydroimidazo[1,5-a]Pyrazin-7(1H)-Yl)Methyl)-4-(3-Fluoro-2-Methylphenyl)-2-(Thiazol-2-Yl)-1,4-Dihydropyrimidine-5-Carboxylate]
EC50 [1]: 0.183 µM | CC50 at 5 days [2]: > 50 µM

CCOC(=O)C1=C(CN2CCN3C(=O)N(C45CC(NS(C)(=O)=O)(C4)C5)C[C@@H]3[C@H]2C(=O)O)NC(c2nccs2)=N[C@H]1c1cccc(F)c1C [Compound 46, (8S,8aR)-7-(((S)-5-(Ethoxycarbonyl)-6-(3-Fluoro-2-Methylphenyl)-2-(Thiazol-2-Yl)-3,6-Dihydropyrimidin-4-Yl)Methyl)-2-(3-(Methylsulfonamido)Bicyclo[1.1.1]Pentan-1-Yl)-3-Oxooctahydroimidazo [1,5-a]Pyrazine-8-Carboxylic Acid]
EC50 [1]: 0.061 µM | CC50 at 5 days [2]: > 50 µM

CCOC(=O)C1=C(CN2CCN3C(=O)N(C45CC(COC)(C4)C5)C[C@@H]3[C@H]2C(=O)O)NC(c2nccs2)=N[C@H]1c1cccc(F)c1C [Compound 47, (8S,8aR)-7-(((S)-5-(Ethoxycarbonyl)-6-(3-Fluoro-2-Methylphenyl)-2-(Thiazol-2-Yl)-3,6-Dihydropyrimidin-4-Yl)Methyl)-2-(3-(Methoxymethyl)Bicyclo[1.1.1]Pentan-1-Yl)-3-Oxooctahydroimidazo[1,5-a]Pyrazine-8-Carboxylic Acid]
EC50 [1]: 0.018 µM | CC50 at 5 days [2]: > 50 µM

CCOC(=O)C1=C(CN2CCN3C(=O)N(C45CCC(CC(=O)O)(CC4)C5)C[C@@H]3C2)NC(c2nccs2)=N[C@H]1c1ccc(F)cc1Cl [Compound 65, 2-(4-((S)-7-(((R)-6-(2-Chloro-4-Fluorophenyl)-5-(Ethoxycarbonyl)-2-(Thiazol-2-Yl)-3,6-Dihydropyrimidin-4-Yl)Methyl)-3-Oxohexahydroimidazo[1,5-a]Pyrazin-2(3H)-Yl)Bicyclo[2.2.1]Heptan-1-Yl)Acetic Acid]
EC50 [1]: 0.042 µM
